Earlier results, collected in patent US4199515A (priority 1978, dated 1980).

Test system: gram-positive bacteria
Conditions: background statement

SMILES: CO[C@@H]1[C@H](C)[C@H]([C@]2(C)CC[C@H]([C@]3(C)CC[C@]4(C[C@H](OC)[C@@H](C)[C@@H]([C@@H](C)[C@H]5O[C@@](O)([C@H](C)C(=O)O)[C@H](C)[C@@H](OC)[C@H]5C)O4)O3)O2)O[C@H]1[C@H]1O[C@](C)(O)[C@H](C)[C@@H](OC)[C@@H]1C [Lonomycin]
- activity to gram positive bacteria: activity to gram positive bacteria
